According to ChEMBL document CHEMBL1833826, “Evaluation of PI polyamide conjugates with eight-base pair recognition and improvement of the aqueous solubility by PEGylation” (Bioorg Med Chem, 2011):
Values after ≈ are worked out from the molar mass of the structure shown. Active and inactive are the calls of the source. No cut-off for these calls is given here.

Legend:
[1] = system: A549; assay: Cytotoxicity against human A549 cells after 48 hrs; type: functional, cell-based; conditions: A549, 48 h
[2] = system: Nucleic Acid; assay: Induction of 5'-Texas Red-labelled 208-bp DNA alkylation at 5'-ATTCACTA-3' sequence at 25 to 200 nM after 18 hrs followed by quenching with calf thymus DNA by PAGE analysis; type: nucleic-acid assay; conditions: Homo sapiens
[3] = system: DU-145; assay: Cytotoxicity against human DU145 cells after 48 hrs; type: functional, cell-based; conditions: DU-145, 48 h
[4] = Chemical stability of the compound in 5 mM sodium phosphate buffer containing 10% DMF at pH 7 assessed as half life by HPLC analysis; type: physicochemical
[5] = Solubility of the compound in Milli-Q water at 25 degC; type: physicochemical
[6] = system: Nucleic Acid; assay: Induction of 5'-Texas Red-labelled 208-bp DNA alkylation at 5'-AATACTCA-3' sequence at 25 to 200 nM after 18 hrs followed by quenching with calf thymus DNA by PAGE analysis; type: nucleic-acid assay
[7] = system: Nucleic Acid; assay: Induction of 5'-Texas Red-labelled 208-bp DNA alkylation at 5'-ATTTGTCA-3' sequence at 25 to 200 nM after 18 hrs followed by quenching with calf thymus DNA by PAGE analysis; type: nucleic-acid assay; conditions: Homo sapiens
[8] = system: Nucleic Acid; assay: Induction of 5'-Texas Red-labelled 208-bp DNA alkylation at 5'-TCCATCCA-3' sequence at 25 to 200 nM after 18 hrs followed by quenching with calf thymus DNA by PAGE analysis; type: nucleic-acid assay; conditions: Homo sapiens
[9] = system: Nucleic Acid; assay: Induction of 5'-Texas Red-labelled 208-bp DNA alkylation at 5'-GTCATCCA-3' sequence at 25 to 200 nM after 18 hrs followed by quenching with calf thymus DNA by PAGE analysis; type: nucleic-acid assay
[10] = system: Nucleic Acid; assay: Induction of 5'-Texas Red-labelled 208-bp DNA alkylation at 5'-TGCATCCA-3' sequence at 25 to 200 nM after 18 hrs followed by quenching with calf thymus DNA by PAGE analysis; type: nucleic-acid assay

SMILES	IC50 [1]	IC50 [3]	half-life [4]	solubility [5]	also measured
CC(=O)Nc1cc(C(=O)Nc2cn(C)c(C(=O)NCCC(=O)Nc3cn(C)c(C(=O)Nc4cc(C(=O)Nc5cc(C(=O)NCCCC(=O)Nc6cc(C(=O)Nc7cc(C(=O)Nc8cc(C(=O)Nc9cc(C(=O)Nc%10ccc%11[nH]c(C(=O)N%12CC(CCl)c%13c%12cc(O)c%12ccccc%13%12)cc%11c%10)n(C)c9)n(C)c8)n(C)c7)n(C)c6)n(C)c5)n(C)c4)n3)n2)n(C)c1 (configuration not stated)	240 nM	62 nM	–	–	Activity [2]: Active
CC(=O)Nc1cn(C)c(C(=O)Nc2cn(C)c(C(=O)Nc3cc(C(=O)Nc4cc(C(=O)NCCCC(=O)Nc5cn(C)c(C(=O)Nc6cn(C)c(C(=O)Nc7ccc8[nH]c(C(=O)N9CC(CCl)c%10c9cc(O)c9ccccc%109)cc8c7)n6)n5)n(C)c4)n(C)c3)n2)n1 (configuration not stated)	135 nM	47 nM	–	–	–
CC(=O)Nc1cc(C(=O)Nc2cn(C)c(C(=O)NCCC(=O)Nc3cn(C)c(C(=O)Nc4cc(C(=O)Nc5cc(C(=O)NCCCC(=O)Nc6cc(C(=O)Nc7cc(C(=O)Nc8cc(C(=O)Nc9cc(C(=O)Nc%10ccc%11[nH]c(C(=O)N%12CC(CCl)c%13c%12cc(OC(=O)[C@@H](N)CCCCN)c%12ccccc%13%12)cc%11c%10)n(C)c9)n(C)c8)n(C)c7)n(C)c6)n(C)c5)n(C)c4)n3)n2)n(C)c1 (some centres not stated)	–	–	< 1 h	1200 µM (≈ 2180 µg/mL)	–
CC(=O)Nc1cc(C(=O)Nc2cn(C)c(C(=O)NCCC(=O)Nc3cn(C)c(C(=O)Nc4cc(C(=O)Nc5cc(C(=O)NCCCC(=O)Nc6cc(C(=O)Nc7cc(C(=O)Nc8cc(C(=O)Nc9cc(C(=O)Nc%10ccc%11[nH]c(C(=O)N%12CC(CCl)c%13c%12cc(OC(=O)NCCCN(C)C)c%12ccccc%13%12)cc%11c%10)n(C)c9)n(C)c8)n(C)c7)n(C)c6)n(C)c5)n(C)c4)n3)n2)n(C)c1 (configuration not stated)	–	–	1.1 h	230 µM (≈ 418 µg/mL)	–
COCCNC(=O)Oc1cc2c(c3ccccc13)C(CCl)CN2C(=O)c1cc2cc(NC(=O)c3cc(NC(=O)c4cc(NC(=O)c5cc(NC(=O)c6cc(NC(=O)CCCNC(=O)c7cc(NC(=O)c8cc(NC(=O)c9nc(NC(=O)CCNC(=O)c%10nc(NC(=O)c%11cc(NC(C)=O)cn%11C)cn%10C)cn9C)cn8C)cn7C)cn6C)cn5C)cn4C)cn3C)ccc2[nH]1 (configuration not stated)	–	–	3.5 h	180 µM (≈ 323 µg/mL)	–
CC(=O)Nc1cn(C)c(C(=O)Nc2cc(C(=O)Nc3cc(C(=O)NCCC(=O)Nc4cc(C(=O)Nc5cc(C(=O)NCCCC(=O)Nc6cc(C(=O)Nc7cc(C(=O)NCCC(=O)Nc8cn(C)c(C(=O)Nc9ccc%10[nH]c(C(=O)N%11CC(CCl)c%12c%11cc(O)c%11ccccc%12%11)cc%10c9)n8)n(C)c7)n(C)c6)n(C)c5)n(C)c4)n(C)c3)n(C)c2)n1 (configuration not stated)	29 nM	7.9 nM	–	–	Activity [6]: 54%; Activity [7]: Active
CC(=O)Nc1cn(C)c(C(=O)Nc2cc(C(=O)Nc3cc(C(=O)NCCC(=O)Nc4cc(C(=O)NCCCC(=O)Nc5cc(C(=O)NCCC(=O)Nc6cn(C)c(C(=O)Nc7ccc8[nH]c(C(=O)N9CC(CCl)c%10c9cc(O)c9ccccc%109)cc8c7)n6)n(C)c5)n(C)c4)n(C)c3)n(C)c2)n1 (configuration not stated)	51 nM	28 nM	–	–	–
CC(=O)Nc1cn(C)c(C(=O)Nc2cn(C)c(C(=O)Nc3cc(C(=O)NCCC(=O)Nc4cn(C)c(C(=O)Nc5cn(C)c(C(=O)NCCCC(=O)Nc6cc(C(=O)Nc7cc(C(=O)NCCC(=O)Nc8cc(C(=O)Nc9ccc%10[nH]c(C(=O)N%11CC(CCl)c%12c%11cc(O)c%11ccccc%12%11)cc%10c9)n(C)c8)n(C)c7)n(C)c6)n5)n4)n(C)c3)n2)n1 (configuration not stated)	240 nM	45 nM	–	–	Activity [8]: Active; Activity [9]: 11%; Activity [10]: 47%
